From ChEMBL document CHEMBL1201862, “PubChem BioAssay data set” (2004)
Active and inactive are the calls of the source.

Key:
[1] = molecular target: T1, Insulin-degrading enzyme (Homo sapiens, UniProt P14735); assay: cellular IDE activation of Abeta substrate cleavage – fluorescence polarization, HEK cells, dose response (AID 588439); type: functional, cell-based
T1 sequence (P14735 whole entry): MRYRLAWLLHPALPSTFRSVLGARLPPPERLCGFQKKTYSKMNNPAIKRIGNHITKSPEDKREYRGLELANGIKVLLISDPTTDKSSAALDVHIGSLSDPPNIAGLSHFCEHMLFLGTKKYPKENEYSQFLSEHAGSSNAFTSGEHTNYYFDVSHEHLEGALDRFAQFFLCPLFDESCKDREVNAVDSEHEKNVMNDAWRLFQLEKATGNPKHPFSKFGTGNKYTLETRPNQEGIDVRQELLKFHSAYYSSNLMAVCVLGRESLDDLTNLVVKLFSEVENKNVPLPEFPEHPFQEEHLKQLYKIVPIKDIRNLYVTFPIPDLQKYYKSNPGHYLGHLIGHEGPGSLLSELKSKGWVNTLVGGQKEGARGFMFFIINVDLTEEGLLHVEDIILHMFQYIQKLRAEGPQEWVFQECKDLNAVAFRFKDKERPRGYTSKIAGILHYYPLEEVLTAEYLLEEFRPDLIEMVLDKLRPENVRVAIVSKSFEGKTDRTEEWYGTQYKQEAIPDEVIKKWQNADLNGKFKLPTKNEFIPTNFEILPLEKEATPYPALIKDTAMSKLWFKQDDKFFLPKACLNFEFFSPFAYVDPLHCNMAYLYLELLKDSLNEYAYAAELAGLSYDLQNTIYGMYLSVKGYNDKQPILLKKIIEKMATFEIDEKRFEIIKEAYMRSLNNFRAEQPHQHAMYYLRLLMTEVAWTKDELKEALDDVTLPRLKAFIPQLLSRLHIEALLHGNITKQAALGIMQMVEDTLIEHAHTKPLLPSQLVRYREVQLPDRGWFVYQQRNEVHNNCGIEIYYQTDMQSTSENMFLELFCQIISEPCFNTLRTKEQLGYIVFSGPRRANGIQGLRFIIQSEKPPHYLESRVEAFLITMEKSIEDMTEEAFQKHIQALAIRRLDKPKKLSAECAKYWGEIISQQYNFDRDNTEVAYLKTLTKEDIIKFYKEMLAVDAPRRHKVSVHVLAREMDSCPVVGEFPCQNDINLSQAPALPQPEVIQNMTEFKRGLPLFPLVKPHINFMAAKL

[2] = system: HEK293; assay: membrane integrity loss in HEK cells – cell-based, fluorescence, cytotoxicity control for IDE activator project, dose response (AID 588440); type: functional; conditions: Homo sapiens;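 note: cytotoxicity by LDH release measuring loss of membrane integrity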
[3] = molecular target: T1, Insulin-degrading enzyme; assay: recombinant IDE activation, cell-free – biochemical, fluorescence polarization, counter-screen for IDE activator project, dose response (AID 588681)
[4] = system: HEK293; assay: optical interference in Abeta FP readout, dose response, artefact control for IDE activator project, biochemical, fluorescence polarization (AID 588442); type: functional, cell-based; conditions: Homo sapiens
[5] = molecular target: T2, Hepatocyte nuclear factor 4-alpha (Homo sapiens, UniProt P41235); type: functional, cell-based;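 note: biochemical luminescence-based dose-response counterscreen measuring inhibition of HNF4 dimerization, run alongside a screen for blockers of ABHD5–perilipin-5 interaction; split luciferase complementation of HNF4 fusion proteins in cell lysate measuring dimerization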
T2 sequence (P41235 whole entry): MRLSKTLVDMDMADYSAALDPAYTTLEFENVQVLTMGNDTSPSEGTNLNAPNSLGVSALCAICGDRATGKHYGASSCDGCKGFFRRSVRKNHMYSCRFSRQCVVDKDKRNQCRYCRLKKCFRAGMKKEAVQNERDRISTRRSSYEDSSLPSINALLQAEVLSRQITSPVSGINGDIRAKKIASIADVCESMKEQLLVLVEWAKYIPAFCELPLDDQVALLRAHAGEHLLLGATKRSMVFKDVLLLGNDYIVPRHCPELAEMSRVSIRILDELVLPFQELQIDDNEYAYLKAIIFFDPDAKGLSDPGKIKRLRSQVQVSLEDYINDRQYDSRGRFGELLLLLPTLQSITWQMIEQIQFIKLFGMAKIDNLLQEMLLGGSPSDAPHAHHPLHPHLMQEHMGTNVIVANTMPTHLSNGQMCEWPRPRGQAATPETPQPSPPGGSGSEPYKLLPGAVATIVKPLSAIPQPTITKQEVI

[6] = molecular target: T3, Caspase-3 (Homo sapiens, UniProt P42574); type: functional;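 note: Dose-response selectivity test against caspase-3 for candidate inhibitors of sentrin-specific proteases (SENPs)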
T3 sequence (P42574 whole entry): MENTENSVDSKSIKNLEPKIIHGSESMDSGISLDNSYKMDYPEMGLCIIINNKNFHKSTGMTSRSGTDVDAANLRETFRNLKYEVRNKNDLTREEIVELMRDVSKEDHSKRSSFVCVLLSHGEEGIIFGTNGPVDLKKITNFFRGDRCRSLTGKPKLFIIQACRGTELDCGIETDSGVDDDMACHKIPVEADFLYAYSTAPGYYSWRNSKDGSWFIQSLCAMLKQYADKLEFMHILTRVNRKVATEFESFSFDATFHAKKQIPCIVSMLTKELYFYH

[7] = molecular target: T4, Sentrin-specific protease 6 (Homo sapiens, UniProt Q9GZR1); type: functional;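 note: Luminescence-based dose-response confirmatory assay of SENP6 inhibition, following up an ultra-high-throughput screen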
T4 sequence (Q9GZR1 whole entry): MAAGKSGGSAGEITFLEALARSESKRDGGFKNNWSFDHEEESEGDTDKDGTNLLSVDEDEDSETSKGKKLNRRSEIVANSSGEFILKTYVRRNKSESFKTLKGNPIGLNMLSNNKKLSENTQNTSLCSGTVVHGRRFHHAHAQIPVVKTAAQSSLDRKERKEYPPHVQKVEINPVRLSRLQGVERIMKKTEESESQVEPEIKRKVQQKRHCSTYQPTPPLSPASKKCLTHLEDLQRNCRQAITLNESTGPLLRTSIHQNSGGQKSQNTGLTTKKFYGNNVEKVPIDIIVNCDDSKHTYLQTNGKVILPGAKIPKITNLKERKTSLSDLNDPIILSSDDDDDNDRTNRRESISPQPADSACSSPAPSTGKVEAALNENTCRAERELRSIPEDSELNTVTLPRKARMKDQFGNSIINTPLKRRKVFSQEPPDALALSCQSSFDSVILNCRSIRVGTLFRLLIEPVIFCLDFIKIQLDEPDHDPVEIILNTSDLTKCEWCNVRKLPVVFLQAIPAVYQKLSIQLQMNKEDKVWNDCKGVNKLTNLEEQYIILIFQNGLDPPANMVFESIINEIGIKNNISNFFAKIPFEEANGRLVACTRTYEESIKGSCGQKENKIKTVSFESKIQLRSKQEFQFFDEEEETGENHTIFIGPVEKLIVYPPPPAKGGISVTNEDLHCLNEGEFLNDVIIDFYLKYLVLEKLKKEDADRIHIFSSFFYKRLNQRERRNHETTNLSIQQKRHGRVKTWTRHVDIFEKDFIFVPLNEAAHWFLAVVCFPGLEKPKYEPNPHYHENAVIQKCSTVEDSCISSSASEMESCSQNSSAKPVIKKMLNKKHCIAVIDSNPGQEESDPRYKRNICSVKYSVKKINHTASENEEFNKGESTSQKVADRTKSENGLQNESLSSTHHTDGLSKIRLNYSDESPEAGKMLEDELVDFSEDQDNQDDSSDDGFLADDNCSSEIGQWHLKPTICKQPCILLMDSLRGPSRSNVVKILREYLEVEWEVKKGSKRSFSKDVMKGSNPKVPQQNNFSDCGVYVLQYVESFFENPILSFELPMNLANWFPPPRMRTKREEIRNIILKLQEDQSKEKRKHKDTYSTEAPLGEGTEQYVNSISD

[8] = molecular target: Genome polyprotein (dengue virus type 2, UniProt P29990); assay: flavivirus cap methylation enzyme inhibition – biochemical, confirmation dose response, primary screen (AID 588689); type: functional
Chain of Genome polyprotein (P29990 2492-3391 limits assumed): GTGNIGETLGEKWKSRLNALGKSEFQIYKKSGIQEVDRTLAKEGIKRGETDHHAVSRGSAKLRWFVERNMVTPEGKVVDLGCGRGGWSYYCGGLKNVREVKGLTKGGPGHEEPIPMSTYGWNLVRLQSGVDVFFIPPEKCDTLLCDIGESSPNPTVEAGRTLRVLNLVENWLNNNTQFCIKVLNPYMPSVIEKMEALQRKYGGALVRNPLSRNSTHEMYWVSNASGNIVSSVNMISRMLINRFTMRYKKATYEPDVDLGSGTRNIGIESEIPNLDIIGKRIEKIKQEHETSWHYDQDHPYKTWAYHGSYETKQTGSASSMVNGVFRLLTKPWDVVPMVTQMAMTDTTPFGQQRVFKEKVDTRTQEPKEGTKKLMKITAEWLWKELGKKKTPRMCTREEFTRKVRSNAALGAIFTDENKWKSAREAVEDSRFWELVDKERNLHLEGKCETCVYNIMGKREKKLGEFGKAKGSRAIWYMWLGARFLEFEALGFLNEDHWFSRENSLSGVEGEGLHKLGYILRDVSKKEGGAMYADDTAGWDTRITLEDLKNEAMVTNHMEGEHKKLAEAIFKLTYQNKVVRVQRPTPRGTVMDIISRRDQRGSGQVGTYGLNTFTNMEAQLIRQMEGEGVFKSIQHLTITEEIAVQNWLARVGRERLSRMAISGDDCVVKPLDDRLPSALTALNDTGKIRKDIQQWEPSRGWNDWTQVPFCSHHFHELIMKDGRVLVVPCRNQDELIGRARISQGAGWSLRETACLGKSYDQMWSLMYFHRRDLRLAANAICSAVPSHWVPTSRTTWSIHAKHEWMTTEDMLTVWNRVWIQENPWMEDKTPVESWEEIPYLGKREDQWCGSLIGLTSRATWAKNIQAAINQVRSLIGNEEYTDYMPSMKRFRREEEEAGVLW

[9] = molecular target: T5, Sentrin-specific protease 7 (Homo sapiens, UniProt Q9BQF6); type: functional;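 note: Luminescence-based dose-response confirmation of ultra-high-throughput screening hits, measuring inhibition of SENP7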
T5 sequence (Q9BQF6 whole entry): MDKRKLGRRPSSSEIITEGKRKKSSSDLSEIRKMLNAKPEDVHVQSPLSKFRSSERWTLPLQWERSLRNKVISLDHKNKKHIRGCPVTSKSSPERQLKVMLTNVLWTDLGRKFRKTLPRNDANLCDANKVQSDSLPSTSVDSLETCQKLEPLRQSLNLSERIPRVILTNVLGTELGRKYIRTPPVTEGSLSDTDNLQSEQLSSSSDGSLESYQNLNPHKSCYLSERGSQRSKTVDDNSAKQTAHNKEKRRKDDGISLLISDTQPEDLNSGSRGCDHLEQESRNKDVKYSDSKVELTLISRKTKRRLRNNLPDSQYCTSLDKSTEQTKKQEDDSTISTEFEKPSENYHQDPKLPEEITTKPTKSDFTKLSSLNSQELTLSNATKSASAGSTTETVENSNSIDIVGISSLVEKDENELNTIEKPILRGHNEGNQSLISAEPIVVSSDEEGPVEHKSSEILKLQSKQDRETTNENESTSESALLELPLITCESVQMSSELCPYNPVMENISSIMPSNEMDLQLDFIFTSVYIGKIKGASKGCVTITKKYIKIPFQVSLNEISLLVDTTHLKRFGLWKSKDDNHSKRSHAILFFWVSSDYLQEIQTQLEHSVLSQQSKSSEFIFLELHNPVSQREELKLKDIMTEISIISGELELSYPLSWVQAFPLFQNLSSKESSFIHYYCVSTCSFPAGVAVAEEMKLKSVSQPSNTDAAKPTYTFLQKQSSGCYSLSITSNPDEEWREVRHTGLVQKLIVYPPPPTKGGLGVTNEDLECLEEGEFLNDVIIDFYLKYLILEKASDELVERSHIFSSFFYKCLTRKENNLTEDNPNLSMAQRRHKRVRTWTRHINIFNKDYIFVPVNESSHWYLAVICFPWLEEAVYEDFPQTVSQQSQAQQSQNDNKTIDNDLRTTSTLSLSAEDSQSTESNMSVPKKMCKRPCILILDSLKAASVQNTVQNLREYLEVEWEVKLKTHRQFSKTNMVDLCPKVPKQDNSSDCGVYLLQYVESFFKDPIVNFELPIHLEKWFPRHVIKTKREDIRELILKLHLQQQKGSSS

[10] = molecular target: T6, Sentrin-specific protease 8 (Homo sapiens, UniProt Q96LD8); type: functional;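 note: luminescence read-out of SENP8 inhibition, dose-response confirmation following an ultra-high-throughput screen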
T6 sequence (Q96LD8 whole entry): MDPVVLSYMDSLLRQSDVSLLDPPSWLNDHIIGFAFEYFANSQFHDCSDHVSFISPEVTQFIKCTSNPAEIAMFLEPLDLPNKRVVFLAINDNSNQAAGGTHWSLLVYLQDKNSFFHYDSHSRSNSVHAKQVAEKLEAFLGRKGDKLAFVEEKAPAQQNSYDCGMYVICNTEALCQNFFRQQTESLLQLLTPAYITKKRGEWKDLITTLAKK

[11] = system: Vero; assay: viability of Vero cells under compound – cytotoxicity control for flavivirus capping enzyme inhibitors (AID 588742); type: functional; conditions: Chlorocebus sabaeus
[12] = Luminescence Cell-Based Dose Retest to Confirm Inhibitors of Cancer Stem Cells. [Related pubchem assays (depositor defined):AID2717, AID2721]; type: functional; conditions: Homo sapiens
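Throughout, for AC50: cells exposed to compound for roughly 70 hours or longer before luminescence read.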

Structure (SMILES)	EC50 [1]	IC50 [2]	EC50 [3]	EC50 [4]	IC50 [5]	IC50 [6]	IC50 [7]	IC50 [8]	IC50 [9]	IC50 [10]	CC50 [11]	AC50 [12]
OC(CNC1CCCCC1)C(F)(F)F (configuration not stated)	> 54.7 µM (inactive)	> 89.1 µM (inactive)	> 54.7 µM (inactive)	> 55.9 µM (inactive)	–	–	–	–	–	–	–	–
CCN(c1ccccc1)S(=O)(=O)c1ccc(N2CCN(c3ccc(OC)cc3)CC2)nc1	> 54.7 µM (inactive)	> 89.2 µM (inactive)	> 54.7 µM (inactive)	> 55.9 µM (inactive)	–	–	–	–	–	–	–	–
O=C(NCc1ccccc1)C(c1ccccc1)n1c(=O)c(-c2ccco2)nc2ccccc21 (configuration not stated)	–	–	–	–	2.93 µM (active)	–	–	–	–	–	–	–
COc1ccc(NC(=O)c2cc3ccccc3cc2O)cc1	–	–	–	–	10 µM (inactive)	20.7 µM (active)	72.6 µM (active)	> 100 µM (active)	5.51 µM (active)	> 100 µM (inactive)	34.6 µM (active)	6.04 µM (active)
